The source of these data is patent publication US20220265668A1, “TREATMENT AND/OR PREVENTION OF LESIONS IN THE CENTRAL AUDITORY NERVOUS SYSTEM” (SENSORION, priority 2019, published 2022).

Experiment [1] has as its system neuronal cells in the inferior colliculus (IC). Nature of the experiment: Neuronal cell density in the inferior colliculus (IC) after noise trauma. Format: in vivo, mice. The note with it: 26.4 mg/kg peroral once daily for 14 days, initiated 0 h, 24 h, 48 h or 72 h after acoustic trauma; compared to placebo; FIG. 5. The protocol: (§1) Noise application was performed for 3 h under anesthesia, using a broad band noise 4-20 kHz, 115 dB SPL, free-field.
(§2) Post-traumatic (0; 24 h; 48 h or 72 h after noise exposure) initiation of oral administration of 26.4 mg/kg (R)-azasetron besylate or of the related placebo formulation, respectively, was performed once daily. Treatments were continued daily for 14 days. • Treatment (T) group 1 +Placebo (P) group 1: Treatment from d1-d14 • Treatment (T) group 2 +Placebo (P) group 2: Treatment from d2-d15 • Treatment (T) group 3 +Placebo (P) group 3: Treatment from d3-d16 • Treatment (T) group 4 +Placebo (P) group 4: Treatment from d4-d17
(§3) Six animals per group (48 in total) have been perfused via the left hearth chamber with a fixative solution (paraformaldehyde (4%)) on day 15.
(§4) Cochleae and brains were prepared (cutting, staining), as disclosed in Gröschel et al. (2010).

For experiment [2], the system named is neuronal cells in the ventral cochlear nucleus (VCN). Nature of the experiment: Neuronal cell density in the ventral cochlear nucleus (VCN) after noise trauma. It is filed as in vivo, mice. As for the experimental part:
as §1, §2, §3, §4

Experiment [3] deals with young adult NMRI mice having undergone an acoustic trauma. Description: Frequency specific ABR thresholds after noise trauma. The conditions noted are these: 26.4 mg/kg peroral once daily for 14 days after noise trauma (4-20 kHz, 115 dB SPL, 3 h); compared to placebo; FIG. 1. Format: in vivo. As for the experimental part: 12 animals per group (young adult Naval Medical Research Institute (NMRI) mice), 96 animals in total.
Frequency specific ABR-thresholds at 4; 8; 12; 16; 20; 24; 28; 32 kHz under anesthesia (Ketamine/Xylazine). At least 3 measurements per frequency were performed.
as §1, §2

Experiment [4] has as its system outer hair cells (OHC) in the cochlea. Description: Cochlear hair cell loss (cochleogram) after noise trauma. The note with it: 26.4 mg/kg peroral once daily for 14 days after noise trauma; at growing distances from the apex; vs placebo; FIG. 2. It is filed as in vivo, mice. The protocol:
as §1, §2, §3, §4

For `CN1C(=O)COc2c(C(=O)N[C@H]3CN4CCC3CC4)cc(Cl)cc21` [(R)-azasetron besylate], in experiment [1], the “destruction of neuronal cells in the IC (normalized cell densities per grid)” value is on record as “reduces the destruction of neuronal cells”. For the same compound, the “destruction of neuronal cells in the VCN (normalized cell densities per grid)” value in experiment [2] (26.4 mg/kg peroral once daily for 14 days, initiated immediately or 24/48/72 h after acoustic trauma, vs placebo, FIGS. 3 and 4) is given as “reduces the destruction of neuronal cells”. In addition, the “threshold shift of the auditory brainstem response” value in experiment [3] is recorded as “does not significantly affect”. In addition, in experiment [4], the “loss of outer hair cells (OHC) in the cochlea” value is “affects the loss of outer hair cells”.

Consider `CN1C(=O)COc2c(C(=O)NC3CN4CCC3CC4)cc(Cl)cc21` (centres unmarked) [azasetron, N-(1-azabicyclo[2.2.2]octan-8-yl)-6-chloro-4-methyl-3-oxo-1,4-benzoxazine-8-carboxamide, reference compound], for which, in experiment [2] (administration upon the onset of lesions after acoustic trauma, summary in discussion (VCN and IC)), the “loss of neurons in the brainstem” value was “significantly reduce the loss of neurons”.
